These are literature values, as cited in patent publication US11913924B2, “Ion generation using modified wetted porous materials” (Purdue Research Foundation, priority 2011, dated 2024).

The conditions of data set [1]: in vivo.
[2] abbreviates: therapeutic windows listed in Table 6.

SMILES strings stand for the structures. Read-outs that look alike come from different tables or passages of the source.

Consider `O=P1(N(CCCl)CCCl)NCCCO1` (stereo not shown) [Cyclophosphamide, cyclophosphamide], for which the “Therapeutic range” value (plasma concentrations, Regenthal et al., J. Clin. Monitor Comp. 1999) was 10000 to 25000 ng/mL.
With `CN(C)CCC=C1c2ccccc2CCc2ccccc21` [amitriptyline], the Therapeutic range under setting [2] was 50 to 200 ng/mL.
With `CN(C)CCCC1(c2ccc(F)cc2)OCc2cc(C#N)ccc21` (stereo not shown) [citalopram], the Therapeutic range under setting [2] was 10 to 200 ng/mL.
For `CN1C(=O)CC[C@H]1c1cccnc1` [cotinine], in data set [1], the half-life result was “about 16 hours”.
With `CCN(CC)CC(=O)Nc1c(C)cccc1C` [lidocaine], the Therapeutic range under setting [2] is 1,000-6,000 ng mL^−1.
As for `CN1CCCC1c1cccnc1` (stereo not shown) [nicotine], in data set [1], the half-life result is listed as “about 2 hours”.
For the compound `CCN(CC)CCNC(=O)c1c(C)[nH]c(/C=C2\C(=O)Nc3ccc(F)cc32)c1C` [sunitinib], under setting [2], the Therapeutic range was 20 to 200 ng/mL.
